# From patent US20160228403A1, “AGENT FOR PREVENTING OR AMELIORATING RENAL DYSFUNCTION” (TOHOKU UNIVERSITY, priority 2013, published 2016)
# Legend:
# [1] = Body weight of chronic renal failure model mice given lubiprostone; type: in vivo; settings: adenine-diet mice; lubiprostone 50 or 500 μg/kg orally once daily for 12 days; FIG. 1
# Method: (§1) Chronic renal failure model mice to which lubiprostone was administered were prepared according to a method consisting of the following processes to [4]. The body weight of mice was measured on a weekly basis, and blood pressure was measured by a tailcuff method.
# (§2) [1] Male C57BL/6 mice (purchased from Clea Japan, Inc.) were fed on an ordinary feed (CE-2 from Clea Japan, Inc.) until 6 weeks of age.
# (§3) [2] At 7 weeks of age, the mice were divided into an ordinary fed group fed on the ordinary feed (control) and an adenine-diet fed group fed on an ordinary feed containing 0.2% adenine (from Wako) (adenine-diet).
# [3] […]
# In the 4 groups (the ordinary fed group, the corn-oil administration group, the lubiprostone 50 administration group, and the lubiprostone 500 administration group), the body weight of mice at 7 weeks of age (immediately after adenine-diet feeding), at 9 weeks of age (at 2 weeks of age after adenine-diet feeding), at 11 weeks of age (at 4 weeks of age after adenine-diet feeding), at 13 weeks of age (immediately after lubiprostone administration), and at cervical dislocation (at 13/7 [≈1.86] weeks after lubiprostone administration) was measured; the results are shown in FIG. 1.
# F4/80 = experiment: DAB staining of renal failure marker protein F4/80 in renal tissue sections; type: in vivo, mice; settings: lubiprostone 50 or 500 μg/kg vs corn oil administration group; FIG. 4 upper
# Method: (§4) [3] The adenine-diet fed group was fed by returning the feed to the ordinary feed after 6 weeks of adenine-diet feeding (at 13 weeks of age) and divided into 3 administration groups (“corn-oil administration group” [vehicle], “lubiprostone 50 administration group” [Lubi50], and “lubiprostone 500 administration group” [Lubi500]; corn oil, 50 μg/kg (mouse body weight) of lubiprostone dissolved in corn oil [Amitiza capsule] [from Abbot Japan Co., Ltd.], and 500 μg/kg (mouse body weight) of lubiprostone dissolved in corn oil [from Abbot Japan Co., Ltd.] were forcibly orally administered using a sound to the “corn-oil administration group”, “lubiprostone 50 administration group”, and “lubiprostone 500 administration group”, respectively once daily for 12 days.
# (§5) Renal tissue sections were prepared to perform detailed renal tissue analysis. The renal tissue of the chronic renal failure model mice to which lubiprostone was administered prepared by the method described in Example 1 was fixed in 10% neutral-buffer formalin and embedded in paraffin. The paraffin-embedded renal tissue was sliced and analyzed using 3 histological staining methods (periodic acid-Schiff stain [PAS], Masson's trichrome stain [MTS], and picrosirius red stain) (FIG. 3).
# (§6) F4/80 and αSMA are known as renal failure markers. […]
# αSMA = experiment: DAB staining of renal failure marker protein αSMA in renal tissue sections; type: in vivo, mice; settings: lubiprostone 50 or 500 μg/kg vs corn oil administration group; FIG. 4 lower
# Method: as §4, §5, §6
# [2] = test system: Tnfa, Il6, Pai-1, and Ccl2; experiment: Quantitative PCR of nephritis-related marker mRNA in whole kidney; type: in vivo, mice
# Method: [3] […]
# (§7) In addition, 8 renal failure markers other than F4/80 and αSMA (4 nephritis-related markers [Tnfa, Il6, Pai-1, and Ccl2] and 4 fibrosis-related markers [Col1a1, Col3a1, Tgfb1, and Acta2]) were also analyzed. […] The expression level of mRNA of genes of the 8 renal failure markers (the 4 nephritis-related markers and the 4 fibrosis-related markers) was detected by performing quantitative PCR using Fast start universal probe master (from Roche Co., Ltd.) under the conditions described in the following 1) to 2). […]
# (§8) The number of PCR cycles at which each PCR product reaches a certain amount (threshold cycle: Ct value) was measured using Baseline software (from Applied Biosystems Co., Ltd.); the relative Ct value of the cDNA amplification product of the gene of each of the 8 renal failure markers (the 4 nephritis-related markers and the 4 fibrosis-related markers) based on the Ct value of the cDNA amplification product of the GAPDH gene was determined by a comparative Ct method (delta-delta Ct method); and the relative amount of cDNA of the gene of each of the 8 renal failure markers (the 4 nephritis-related markers and the 4 fibrosis-related markers), i.e., the relative amount of mRNA of the gene of each of the 8 renal failure markers (the 4 nephritis-related markers and the 4 fibrosis-related markers), was calculated from the relative Ct value (see the ordinate of FIG. 5).
# [3] = test system: chronic renal failure model mice; experiment: Histological analysis of renal tissue (PAS, MTS, picrosirius red) of chronic renal failure model mice; type: in vivo
# Method: as §1, §2, §3, §4
# [4] After 24 hours, the mice were subjected to cervical dislocation.
# as §5
# [4] = test system: chronic renal failure model mice; experiment: BUN and hemoglobin level in blood of chronic renal failure model mice (i-STAT); type: in vivo
# Method: The present invention will be more specifically described below with reference to Examples. However, these Examples are not intended to limit the technical scope of the present invention. In Examples, to confirm that the administration of lubiprostone (trade name: Amitiza) could ameliorate renal function, chronic renal failure model mice were prepared by causing mice to eat adenine and analysis was performed using the chronic renal failure model mice. The chronic renal failure model mice are mice in which nephropathy occurs by the crystallization of the eaten adenine in the uriniferous tubule in the form of insoluble 2,8-dihydroxyadenine (Cozzolino, M. et al. Kidney Int. 64, 441-450 (2003) and Tamagaki, K. et al. Nephrol. Dial. Transplant 21, 651-659 (2006)). All experimental animals were operated after approval by the Ethics Committee of Tohoku University School of Medicine.
# as §1, §2, §3
# [3] […]
# Blood was collected according to an established method from the chronic renal failure model mice to which lubiprostone was administered prepared by the method described in Example 1, and the level of BUN in the blood of the mice was measured using i-STAT (from Fuso) (FIG. 2).
# [5] = test system: Col1a1, Col3a1, Tgfb1, and Acta2; experiment: Quantitative PCR of fibrosis-related marker mRNA in whole kidney; type: in vivo, mice
# Method: [3] […]
# as §7, §8
# [6] = lubiprostone 500 administration group (500 μg/kg), Dunnett test, FIG. 5
smiles,measurement,setting,value
"CCCCC(F)(F)C(=O)CC[C@H]1[C@H](O)CC(=O)[C@@H]1CCCCCCC(=O)O [lubiprostone, (−)-7-[(2R,4aR,5R,7aR)-2-(1,1-difluoropentyl)-2-hydroxy-6-oxooctahydrocyclopenta[b]pyran-5-yl]heptanoic acid]",recovery of body weight after return to ordinary feed,[1],did not affect the recovery of body weight
same,increase in the expression of renal failure marker F4/80 protein,F4/80,suppressed
same,increase in the expression of renal failure marker αSMA protein,αSMA,suppressed
same,"mRNA of 3 nephritis-related markers (excluding Il6), statistical difference to the corn oil administration group",[2]; [6],a significant difference was noted
same,"expression level of mRNA of the 4 nephritis-related markers (Tnfa, Il6, Pai-1, Ccl2)","[2]; relative to GAPDH, lubiprostone 50 or 500 μg/kg vs corn oil administration group, FIG. 5 panel A",decreased the expression level of mRNA
same,"fibrosis of the kidney, collagen fiber staining by picrosirius red stain, renal tissue sections","[3]; lubiprostone 50 or 500 μg/kg vs corn oil administration group, FIG. 3 panel A bottom",the fibrosis of the kidney was suppressed
same,"fibrosis of the kidney, collagen fiber staining by MTS method, renal tissue sections","[3]; lubiprostone 50 or 500 μg/kg vs corn oil administration group, FIG. 3 panel A middle",the fibrosis of the kidney was suppressed
same,"uriniferous tubule, PAS stain of renal tissue sections","[3]; lubiprostone 50 or 500 μg/kg vs corn oil administration group, FIG. 3 panel A top",recovery of the uriniferous tubule was noted
same,"fibrosis of the kidney, collagen fiber staining by MTS method, whole kidney","[3]; lubiprostone 50 or 500 μg/kg vs corn oil administration group, FIG. 3 panel B top",the fibrosis of the kidney was suppressed
same,"decrease of the renal uriniferous tubule (tubules area, MTS method, whole kidney)","[3]; lubiprostone 50 or 500 μg/kg vs corn oil administration group, FIG. 3 panels B bottom and C",suppressed in a manner dependent on the dose of lubiprostone
same,"proportion of the renal uriniferous tubule in the whole kidney, statistical difference to the corn oil administration group","[3]; lubiprostone 500 administration group (500 μg/kg), Dunnett test p<0.01, FIG. 3 panel C",a significant difference was noted
same,level of hemoglobin (Hb) in the blood,[4]; chronic renal failure model mice given lubiprostone,did not change
same,increase in the blood BUN level,"[4]; lubiprostone 50 or 500 μg/kg orally once daily for 12 days vs corn oil administration group, FIG. 2",suppressed in a manner dependent on the dose of lubiprostone
same,"blood BUN level, statistical difference to the corn oil administration group","[4]; lubiprostone 500 administration group (500 μg/kg), Dunnett test p<0.05, FIG. 2",a significant difference was noted
same,"mRNA of the 4 fibrosis-related markers, statistical difference to the corn oil administration group",[5]; [6],a significant difference was noted
same,"expression level of mRNA of the 4 fibrosis-related markers (Col1a1, Col3a1, Tgfb1, Acta2)","[5]; relative to GAPDH, lubiprostone 50 or 500 μg/kg vs corn oil administration group, FIG. 5 panel B",decreased the expression level of mRNA
